In DBAASP one finds MIC data, which are given here for 17 molecules.

Molecules are shown by their SMILES. In brackets after ≈: the same amount, converted by molar mass. Several values for one entry are separate records, joined by “and”; a condition that tells them apart may be missing. Identical values can stand only once.

Common to all, as to assay: ≥ marks a high value that may be exact or a test limit, other limits are often not marked, values filed in µg/mL are converted to µM
Test [1] has as its system Staphylococcus aureus ATCC BAA-1556.
The test system of test [2] is Enterococcus faecalis NCTC 12697.
Test [3] relates to Candida albicans NCPF 1467.
For test [4], the system named is Staphylococcus aureus NCTC 10788.
The subject of test [5] is Escherichia coli NCTC 10418.
Test [6] has as its system Staphylococcus aureus NCTC 12493.
Test [7] deals with Pseudomonas aeruginosa ATCC 27853.
Another test has as its system Escherichia coli BW25113.
The test system of test [8] is Staphylococcus aureus USA 300.
The subject of another test is Escherichia coli K-12.
Test [9] concerns Micrococcus luteus ATCC 4698.
Test [10] relates to Enterococcus faecalis ATCC 29212.
The test system of test [11] is Staphylococcus epidermidis RP62A.
The test system of test [12] is Staphylococcus aureus NCTC 8325.

As for `CC(C)C[C@H](NC(=O)[C@H](CC(C)C)NC(=O)[C@H](CC(C)C)NC(=O)[C@H](CC(C)C)NC(=O)[C@H](CC(C)C)NC(=O)[C@H](CC(C)C)NC(=O)[C@H](CCCCN)NC(=O)[C@H](CC(C)C)NC(=O)[C@@H](N)CCCCN)C(N)=O` [KLKLLLLLL], the MIC (in general, the lowest concentration that inhibits growth of the organism) in test [1] was no less than 100 µM.

In test [1], `CC(C)C[C@H](NC(=O)[C@H](Cc1c[nH]c2ccccc12)NC(=O)[C@H](Cc1c[nH]c2ccccc12)NC(=O)[C@H](CC(C)C)NC(=O)[C@H](Cc1c[nH]c2ccccc12)NC(=O)[C@H](Cc1c[nH]c2ccccc12)NC(=O)[C@H](CC(C)C)NC(=O)[C@H](Cc1c[nH]c2ccccc12)NC(=O)[C@@H](N)Cc1c[nH]c2ccccc12)C(N)=O` [WWLWWLWWL] had an MIC of no less than 100 µM.

For the molecule `CC[C@H](C)[C@H](NC(=O)[C@H](Cc1ccc(O)cc1)NC(=O)[C@H](CC(C)C)NC(=O)[C@@H](N)Cc1ccccc1)C(=O)N[C@H](C(=O)N[C@@H](C)C(=O)N[C@@H](CCCCN)C(=O)N[C@@H](CC(C)C)C(=O)N[C@@H](CC(C)C)C(=O)N[C@@H](CO)C(=O)NCC(=O)N[C@@H](CC(C)C)C(=O)N[C@@H](CC(C)C)C(N)=O)C(C)C` [FLYIVAKLLSGLL], the MIC in [2] was 2 µM (≈ 2.9 µg/mL); in [3], 2 µM (≈ 2.9 µg/mL); in [4], 1 µM (≈ 1.45 µg/mL); in test [5], no less than 512 µM; in test [6], 2 µM (≈ 2.9 µg/mL); in [7] it was greater than 512 µM.

`CC[C@H](C)[C@H](NC(=O)[C@@H]1CCCN1C(=O)[C@H](CCCN=C(N)N)NC(=O)[C@H](CCCN=C(N)N)NC(=O)[C@H](Cc1c[nH]c2ccccc12)NC(=O)[C@@H](N)CCCN=C(N)N)C(=O)N[C@@H](CCCN=C(N)N)C(=O)N[C@@H](CCCN=C(N)N)C(=O)N1CCC[C@H]1C(=O)N1CCC[C@H]1C(=O)N[C@H](C(=O)N[C@@H](CCCN=C(N)N)C(=O)N1CCC[C@H]1C(=O)N1CCC[C@H]1C(=O)N[C@@H](Cc1c[nH]c2ccccc12)C(=O)N[C@@H](Cc1ccc(O)cc1)C(=O)N1CCC[C@H]1C(=O)O)[C@@H](C)CC` [RWRRPIRRPPIRPPWYP] returned an MIC in the test with Escherichia coli BW25113 of 8 µM (≈ 18.4 µg/mL).

With `CC[C@H](C)[C@H](NC(=O)[C@H](C)NC(=O)[C@H](CCCCN)NC(=O)[C@@H]1CCCN1C(=O)[C@@H](NC(=O)[C@H](CC(C)C)NC(=O)[C@H](CCCCN)NC(=O)[C@H](Cc1ccccc1)NC(=O)[C@H](CC(C)C)NC(=O)[C@@H](N)Cc1ccccc1)[C@@H](C)CC)C(=O)N[C@@H](CCCCN)C(=O)NCC(=O)N[C@@H](CC(C)C)C(=O)N[C@@H](CC(C)C)C(=O)N[C@@H](CCCCN)C(=O)N[C@@H](C)C(=O)N[C@@H](Cc1ccccc1)C(=O)N[C@H](C=O)CCCCN` [FLFKLIPKAIKGLLKAFK], the MIC in test [3] is 4 µM (≈ 8.24 µg/mL); in test [4], 4 µM (≈ 8.24 µg/mL); in test [5] it was 8 µM (≈ 16.5 µg/mL).

In the test with Escherichia coli BW25113, `CC[C@H](C)[C@H](NC(=O)[C@@H]1CCCN1C(=O)[C@H](Cc1c[nH]c2ccccc12)NC(=O)[C@H](CCCN=C(N)N)NC(=O)[C@H](Cc1c[nH]c2ccccc12)NC(=O)[C@@H](N)CCCN=C(N)N)C(=O)N[C@@H](CCCN=C(N)N)C(=O)N[C@@H](CCCN=C(N)N)C(=O)N1CCC[C@H]1C(=O)N1CCC[C@H]1C(=O)N[C@H](C(=O)N[C@@H](CCCN=C(N)N)C(=O)N1CCC[C@H]1C(=O)N1CCC[C@H]1C(=O)N[C@@H](Cc1ccccc1)C(=O)N[C@@H](Cc1ccc(O)cc1)C(=O)N1CCC[C@H]1C(=O)O)[C@@H](C)CC` [RWRWPIRRPPIRPPFYP] yielded an MIC of 8 µM (≈ 18.3 µg/mL).

In the test with Escherichia coli BW25113, `CC[C@H](C)[C@H](NC(=O)[C@@H]1CCCN1C(=O)[C@H](CCCN=C(N)N)NC(=O)[C@H](CCCN=C(N)N)NC(=O)[C@H](CCCN=C(N)N)NC(=O)[C@H](Cc1c[nH]c2ccccc12)NC(=O)[C@@H]1CCCN1C(=O)[C@H](CCCN=C(N)N)NC(=O)[C@H](CCCN=C(N)N)NC(=O)[C@H](CCCN=C(N)N)NC(=O)[C@@H](N)CCCN=C(N)N)C(=O)N[C@@H](CCCN=C(N)N)C(=O)N1CCC[C@H]1C(=O)N1CCC[C@H]1C(=O)N[C@@H](Cc1ccccc1)C(=O)N[C@@H](Cc1ccc(O)cc1)C(=O)N[C@@H](Cc1c[nH]c2ccccc12)C(=O)O` [RRRRPWRRRPIRPPFYW] gave an MIC of 8 µM (≈ 19.6 µg/mL).

Molecule `CC(C)C[C@H](NC(=O)[C@H](Cc1c[nH]c2ccccc12)NC(=O)[C@H](Cc1c[nH]c2ccccc12)NC(=O)[C@H](CC(C)C)NC(=O)[C@H](Cc1c[nH]c2ccccc12)NC(=O)[C@H](CCCN=C(N)N)NC(=O)[C@H](CC(C)C)NC(=O)[C@H](Cc1c[nH]c2ccccc12)NC(=O)[C@@H](N)Cc1c[nH]c2ccccc12)C(N)=O` [WWLRWLWWL] came in with an MIC in test [1] of 6.25 µM (≈ 9.02 µg/mL).

Regarding `CC[C@H](C)[C@H](NC(=O)[C@H](C)NC(=O)CNC(=O)[C@@H](NC(=O)[C@@H](N)Cc1ccccc1)C(C)C)C(=O)N[C@@H](C)C(=O)N[C@@H](C)C(=O)N[C@@H](C)C(=O)N[C@@H](CC(C)C)C(=O)N1CCC[C@H]1C(=O)N[C@@H](Cc1cnc[nH]1)C(=O)N[C@H](C(=O)N[C@H](C(=O)N[C@@H](CO)C(=O)N[C@@H](C)C(=O)N[C@H](C(=O)N[C@@H](CCCCN)C(=O)N[C@@H](CC(N)=O)C(=O)N[C@@H](C)C(=O)N[C@@H](CC(C)C)C(=O)O)[C@@H](C)CC)[C@@H](C)CC)C(C)C` [FVGAIAAALPHVISAIKNAL], the MIC in test [3] was no less than 120 µM; in test [4] it was 16 µM (≈ 31.6 µg/mL).

In the case of `CC[C@H](C)[C@H](NC(=O)[C@H](CCCN=C(N)N)NC(=O)[C@H](CCC(N)=O)NC(=O)[C@@H](NC(=O)[C@@H](NC(=O)[C@H](CCCN=C(N)N)NC(=O)[C@H](CCCCN)NC(=O)[C@H](Cc1ccccc1)NC(=O)CN)[C@@H](C)CC)C(C)C)C(=O)N[C@@H](CCCCN)C(=O)N[C@@H](CC(=O)O)C(=O)N[C@@H](Cc1ccccc1)C(=O)N[C@@H](CC(C)C)C(=O)N[C@@H](C)C(=O)N[C@@H](CC(N)=O)C(=O)N[C@@H](CC(C)C)C(=O)N[C@H](C(N)=O)C(C)C` [GFKRIVQRIKDFLANLV], the MIC in test [8] is 7.5 µM and 3.1 µM; in the test on Escherichia coli K-12, 15 µM (≈ 30.2 µg/mL).

In the case of `CC[C@H](C)[C@H](NC(=O)CNC(=O)CNC(=O)[C@H](C)NC(=O)[C@@H](NC(=O)[C@H](CCCCN)NC(=O)[C@@H]1CCCN1C(=O)[C@@H](NC(=O)[C@H](CCSC)NC(=O)[C@H](CO)NC(=O)[C@H](CC(C)C)NC(=O)[C@@H](N)Cc1ccccc1)[C@@H](C)CC)[C@@H](C)CC)C(=O)N[C@@H](C)C(=O)N[C@@H](CO)C(=O)N[C@@H](CC(C)C)C(=O)N[C@H](C(=O)N[C@@H](CCCCN)C(=O)N[C@@H](CC(N)=O)C(=O)N[C@@H](CC(C)C)C(N)=O)C(C)C` [FLSMIPKIAGGIASLVKNL], the values for the MIC in test [3], in [4] and in test [5] were 8.11 µM (≈ 16 µg/mL), 4.06 µM (≈ 8 µg/mL) and no less than 64.9 µM, respectively.

As for `CC(C)C[C@H](NC(=O)[C@H](CC(C)C)NC(=O)[C@H](CCCCN)NC(=O)[C@H](CCCCN)NC(=O)[C@H](CC(C)C)NC(=O)[C@H](CC(C)C)NC(=O)[C@H](CC(C)C)NC(=O)[C@H](CC(C)C)NC(=O)[C@@H](N)CC(C)C)C(N)=O` [LLLLLKKLL], the MIC in test [1] is no less than 100 µM.

Regarding `CC[C@H](C)[C@H](NC(=O)[C@H](CO)NC(=O)[C@H](CCCCN)NC(=O)[C@@H](N)CO)C(=O)N1CCC[C@H]1C(=O)NCC(=O)N[C@@H](CCCN=C(N)N)C(=O)N[C@@H](CO)C(=O)NCC(=O)O` [SKSIPGRSG], the MIC in test [9] is no less than 75 µM.

`CC[C@H](C)[C@H](NC(=O)[C@H](CCCN=C(N)N)NC(=O)[C@@H](N)CCCN=C(N)N)C(=O)N[C@@H](CCCN=C(N)N)C(=O)N[C@@H](Cc1ccccc1)C(=O)N[C@@H](CCCN=C(N)N)C(=O)N1CCC[C@H]1C(=O)N1CCC[C@H]1C(=O)N[C@@H](Cc1ccc(O)cc1)C(=O)N[C@@H](CC(C)C)C(=O)N1CCC[C@H]1C(=O)N[C@@H](CCCN=C(N)N)C(=O)N1CCC[C@H]1C(=O)NCC(=O)N[C@@H](CCCN=C(N)N)C(=O)N[C@@H](CCCN=C(N)N)C(=O)O` [RRIRFRPPYLPRPGRR] displayed a minimal inhibitory concentration (MIC) against Escherichia coli BW25113 of 4 µM (≈ 8.37 µg/mL).

Take `CC[C@H](C)[C@H](NC(=O)[C@@H](NC(=O)[C@@H]1CCCN1C(=O)[C@H](CC(C)C)NC(=O)[C@@H](N)Cc1ccccc1)[C@@H](C)CC)C(=O)NCC(=O)N[C@@H](CCC(N)=O)C(=O)N[C@@H](CC(C)C)C(=O)N[C@@H](CC(C)C)C(=O)N[C@@H](CO)C(=O)NCC(=O)N[C@@H](CC(C)C)C(=O)N[C@@H](CC(C)C)C(N)=O` [FLPIIGQLLSGLL]: the MIC in [10] was greater than 80 µM; in test [11], no less than 80 µM; in test [12] it was no less than 80 µM.

For the molecule `CC[C@H](C)[C@H](NC(=O)[C@H](Cc1c[nH]c2ccccc12)NC(=O)[C@H](CCCN=C(N)N)NC(=O)[C@H](CCCN=C(N)N)NC(=O)[C@H](Cc1c[nH]c2ccccc12)NC(=O)[C@@H](N)CCCCN)C(=O)N[C@@H](CCCN=C(N)N)C(=O)N[C@@H](Cc1c[nH]c2ccccc12)C(=O)N[C@@H](C)C(N)=O` [KWRRWIRWA], the MIC in test [1] worked out at 12.5 µM (≈ 17 µg/mL).

`CC[C@H](C)[C@H](NC(=O)[C@H](Cc1c[nH]c2ccccc12)NC(=O)[C@H](CCCN=C(N)N)NC(=O)[C@H](C)NC(=O)[C@H](Cc1c[nH]c2ccccc12)NC(=O)[C@@H](N)CCCCN)C(=O)N[C@@H](CCCN=C(N)N)C(=O)N[C@@H](Cc1c[nH]c2ccccc12)C(=O)N[C@@H](CC(C)C)C(N)=O` [KWARWIRWL] yielded an MIC in [1] of 12.5 µM (≈ 16.4 µg/mL).
